Legend:
Botrytis cinerea [1] = assay: Contact evaluation (microtiter plate); type: cell-based; design: key: Full: fungal inhibition was rated as full, partial, or none; Partial: fungal inhibition was rated as full, partial, or none; None: fungal inhibition was rated as full, partial, or none
Experimental: (§1) Compound solution: Contact evaluations were conducted to determine the anti-fungal activity of each compound against Botrytis cinerea, Sclerotinia sclerotiorum, Pythium aphanidermatum, Rhizoctonia solani, Cercospora arachidicola, Mycosphaerella fijiensis, and Monilinia laxa. Five milligrams of each compound were dissolved in 0.5 milliliter of DMSO for a compound stock solution of 1.0% w/v. Compound stock solutions were serial diluted with DMSO to 20, 10, and 2 ppm final well concentration. Fungi preparation: Botrytis cinerea spores were taken from 6-week-old cultures grown at 22C on full strength potato dextrous agar (PDA) plates. Sclerotinia sclerotiorum, Pythium aphanidermatum, Rhizoctonia solani, and Monilinia laxa mycelia were taken from 4- to 10-day-old shake flask cultures grown at room temperature on full strength potato dextrous broth (PDB). Cercospora arachidicola mycelia were taken from 10- to 14-day-old shake flask cultures grown at room temperature on a full strength PDB amended with peanut oil. Mycosphaerella fijiensis mycelia were taken from 10- to 14-day-old shake flask cultures grown at room temperature on V8 juice broth. Sclerotinia sclerotiorum, Pythium aphanidermatum, Rhizoctonia solani, Cercospora arachidicola, and Mycosphaerella fijiensis mycelia (0.4 g mycelia) were blended for 45 seconds in 20 mL sterile de-ionized water. Monilinia laxa mycelia (1 g mycelia) was blended for 45 seconds in 30 mL of sterile de-ionized water. Botrytis cinerea spores were diluted with quarter strength PDB to 1×10^5 spores/mL final well concentration. All mycelia were diluted in water (1:5 mycelia:water) before distributing into the wells. Microtiter plate preparation: Compound solution (10:L), quarter strength PDB (900:L) and fungi preparation (100:L) were sequentially distributed into 48-well microtiter plates (n=3 replications/compound/rate). A blank consisted of quarter strength PDB and fungi preparation. Commercial fungicide controls (100 ppm diluted with water) consisted of Scala for Botrytis cinerea, Dithane F-45 for Mycosphaerella fijiensis, and Benlate for Sclerotinia sclerotiorum, Pythium aphanidermatum, Rhizoctonia solani, Cercospora arachidicola, and Monilinia laxa. Plates were shaken in a circular rotator at room temperature for 20 minutes, then incubated at 25C for 24 to 72 hours, depending on the pathogen. Fungal control ratings: Fungal growth in wells containing the compounds were compared to the positive control and fungal inhibition was rated as full, partial, or none. Final readings were the average of the three wells (Table 1).

Cercospora arachidicola = assay: Contact evaluation (microtiter plate); type: cell-based; design: key: Full: fungal inhibition was rated as full, partial, or none; Partial: fungal inhibition was rated as full, partial, or none; None: fungal inhibition was rated as full, partial, or none
Experimental: as §1

Monilinia laxa = assay: Contact evaluation (microtiter plate); type: cell-based; design: key: Full: fungal inhibition was rated as full, partial, or none; Partial: fungal inhibition was rated as full, partial, or none; None: fungal inhibition was rated as full, partial, or none
Experimental: as §1

Mycosphaerella fijiensis = assay: Contact evaluation (microtiter plate); type: cell-based; design: key: Full: fungal inhibition was rated as full, partial, or none; Partial: fungal inhibition was rated as full, partial, or none; None: fungal inhibition was rated as full, partial, or none
Experimental: as §1

Pythium aphanidermatum = assay: Contact evaluation (microtiter plate); type: cell-based; design: key: Full: fungal inhibition was rated as full, partial, or none; Partial: fungal inhibition was rated as full, partial, or none; None: fungal inhibition was rated as full, partial, or none
Experimental: as §1

Rhizoctonia solani = assay: Contact evaluation (microtiter plate); type: cell-based; design: key: Full: fungal inhibition was rated as full, partial, or none; Partial: fungal inhibition was rated as full, partial, or none; None: fungal inhibition was rated as full, partial, or none; conditions: Rhizoctinia solani
Experimental: as §1

Sclerotinia sclerotiorum = assay: Contact evaluation (microtiter plate); type: cell-based; design: key: Full: fungal inhibition was rated as full, partial, or none; Partial: fungal inhibition was rated as full, partial, or none; None: fungal inhibition was rated as full, partial, or none; conditions: Sclerotinia sclerotionum
Experimental: as §1

Botrytis cinerea [2] = assay: Detached bean leaf bioassay, fungal control; type: in vivo; conditions: detached bean leaf (Phaseolus vulgaris), three days after inoculation, 100 minus percent necrotic area
Experimental: Compound solution: Compound solutions were prepared by diluting compound stock solutions (1.0% w/v compound in DMSO) to 200 ppm with 0.01% w/v Triton X-100.
Spore solution preparation: Botrytis cinerea spores were taken from 6-week-old cultures grown at 22C on full strength potato dextrous agar (PDA) plates and harvested in 1:16 frozen orange juice concentrate:water. Botrytis cinerea spore solutions were prepared by diluting spore cultures to 5×10^4 spores/mL with 1:16 frozen orange juice concentrate:water.
Plant material: Middle trifoliate leaves of greenhouse grown Phaseolus vulgaris (Bush bean cv. Blue Lake 274) were excised and placed on a plastic grid above a tray containing moist towels.
Treatment method: One half of the adaxial surface of the leaf was treated with the compound solution (100:L) using a 3 cm Bacti Cell Spreader. A blank consisted of 0.01% w/v Triton X-100. A commercial fungicide control (200 ppm diluted with water) consisted of Scala. […]
Fungal control rating: Three days after inoculation with Botrytis, the percent necrotic area under the inoculation droplet was determined. Since the areas under the blank (0.01% w/v Triton X-100) were 100% infected, fungal control was expressed as 100 minus the percent necrotic area, and thus 0% infected is 100% fungal control (n=3 leaves/compound, 5 inoculation droplets/leaf, Table 2).

[3] = tested on: Phaseolus vulgaris (Bush bean cv. Blue Lake 274); assay: Detached bean leaf bioassay, phytotoxicity rating; type: in vivo
Experimental: Compound solution: Compound solutions were prepared by diluting compound stock solutions (1.0% w/v compound in DMSO) to 200 ppm with 0.01% w/v Triton X-100. Plant material: Middle trifoliate leaves of greenhouse grown Phaseolus vulgaris (Bush bean cv. Blue Lake 274) were excised and placed on a plastic grid above a tray containing moist towels. Treatment method: One half of the adaxial surface of the leaf was treated with the compound solution (100:L) using a 3 cm Bacti Cell Spreader. A blank consisted of 0.01% w/v Triton X-100. A commercial fungicide control (200 ppm diluted with water) consisted of Scala. After the solutions dried, the trays containing the leaves were covered and held one day in a growth chamber (22C). The adaxial surfaces of the leaves were then inoculated with 5–60:L droplets of Botrytis cinerea spore solution. Phytotoxicity ratings: Phytotoxicity was rated as 0=no phytotoxicity, 1=slight phytotoxicity, 2=moderate phytotoxicity, or 3=excessive phytotoxicity (Table 2).

Structure (SMILES): C/C1=C\C=C\CCC(C)CNC(=O)/C=C/C=C/C(C)C(O)C/C=C(\C)C1 (centres unmarked) [formula I]
- Control of fungi (full, partial, none) (Botrytis cinerea [1]; fungicide rate 2 ppm): Full
- Control of fungi (full, partial, none) (Botrytis cinerea [1]; fungicide rate 10 ppm): Full
- Control of fungi (full, partial, none) (Botrytis cinerea [1]; fungicide rate 20 ppm): Full
- Control of fungi (full, partial, none) (Cercospora arachidicola; fungicide rate 2 ppm): Full
- Control of fungi (full, partial, none) (Cercospora arachidicola; fungicide rate 10 ppm): Full
- Control of fungi (full, partial, none) (Cercospora arachidicola; fungicide rate 20 ppm): Full
- Control of fungi (full, partial, none) (Monilinia laxa; fungicide rate 2 ppm): Full
- Control of fungi (full, partial, none) (Monilinia laxa; fungicide rate 10 ppm): Full
- Control of fungi (full, partial, none) (Monilinia laxa; fungicide rate 20 ppm): Full
- Control of fungi (full, partial, none) (Mycosphaerella fijiensis; fungicide rate 2 ppm): Full
- Control of fungi (full, partial, none) (Mycosphaerella fijiensis; fungicide rate 10 ppm): Full
- Control of fungi (full, partial, none) (Mycosphaerella fijiensis; fungicide rate 20 ppm): Full
- Control of fungi (full, partial, none) (Pythium aphanidermatum; fungicide rate 2 ppm): Full
- Control of fungi (full, partial, none) (Pythium aphanidermatum; fungicide rate 10 ppm): Full
- Control of fungi (full, partial, none) (Pythium aphanidermatum; fungicide rate 20 ppm): Full
- Control of fungi (full, partial, none) (Rhizoctonia solani; fungicide rate 2 ppm): Full
- Control of fungi (full, partial, none) (Rhizoctonia solani; fungicide rate 10 ppm): Full
- Control of fungi (full, partial, none) (Rhizoctonia solani; fungicide rate 20 ppm): Full
- Control of fungi (full, partial, none) (Sclerotinia sclerotiorum; fungicide rate 2 ppm): Full
- Control of fungi (full, partial, none) (Sclerotinia sclerotiorum; fungicide rate 10 ppm): Full
- Control of fungi (full, partial, none) (Sclerotinia sclerotiorum; fungicide rate 20 ppm): Full
- Botrytis cinerea control (200 ppm) (Botrytis cinerea [2]): 31%
- Phytotoxity (200 ppm) [3]: None
